Assay results: patent publication US20260226084A1, “DUAL RAF AND TUBULIN INHIBITORS AND METHODS OF USE THEREOF” (Deciphera Pharmaceuticals, LLC, priority 2023, published 2026)
Read-outs that look alike come from different tables or passages of the source.

Tests used:
[1] = biological target: T1, B-Raf kinase (SEQ ID NO: 1) (Homo sapiens, UniProt P15056); assay: Biochemical Assay for B-Raf (coupled pyruvate kinase/lactate dehydrogenase assay); conditions: 1 mM ATP; read-out: BRAF (inhibition of biochemical activity, IC50)
T1 construct: GST (N); purchased Sigma
T1 sequence (P15056 416-766): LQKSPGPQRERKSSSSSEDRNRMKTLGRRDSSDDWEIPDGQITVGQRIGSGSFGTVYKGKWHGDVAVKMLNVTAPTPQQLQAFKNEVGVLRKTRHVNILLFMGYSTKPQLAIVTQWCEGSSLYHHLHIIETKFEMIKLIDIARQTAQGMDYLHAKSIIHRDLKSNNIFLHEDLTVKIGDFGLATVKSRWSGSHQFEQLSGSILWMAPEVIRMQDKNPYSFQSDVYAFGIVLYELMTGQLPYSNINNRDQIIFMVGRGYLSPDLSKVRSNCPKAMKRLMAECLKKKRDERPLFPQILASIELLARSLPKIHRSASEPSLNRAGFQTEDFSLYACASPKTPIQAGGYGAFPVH

MiaPaca-2 cells = assay: MiaPaca-2 Cell Proliferation Assay; type: cell-based; conditions: Table 2, read-out: Inhibition of cell proliferation in MiaPaca-2 (IC50 class)
Description: Miapaca-2 cells (catalog #CRL-1420) are obtained from the American Type Culture Collect (ATTC, Manassas, VA). Briefly, cells were grown in DMVEM supplemented with 10 characterized fetal bovine serum (Invitrogen, Carlsbad, CA), 2.5% New Zealand sourced horse serum and 1 Penicillin/Streptomycin/L-Glutamine at 37° C., 5 CO2, and 95% humidity. Cells are expanded until reaching 70-95% confluency at which point they are sub-cultured or harvested for assay use. A serial dilution of test compound is dispensed into a 96-well black clear bottom plate in triplicate. Three thousand cells are added per well in 200 μL complete growth medium in the 96-well plate. Plates are incubated for 67 to 72 h at 37° C., 5% CO2, and 95% humidity. At the end of the incubation, 40 μL of a 440 μM solution of resazurin (Sigma, St. Louis, MO) in PBS is added to each well of the plate and plates are incubated for an additional 5 to 6 h at 37° C., 5% CO2, and 95% humidity. Plates are read on a Synergy2 or equivalent reader (Biotek, Winooski VT) using an excitation of 540 nm and an emission of 600 nm. Data is analyzed using Prism software (Graphpad, San Diego, CA) to calculate IC50 values.

[2] = biological target: T2, C-Raf kinase (SEQ ID NO: 2) (Homo sapiens, UniProt P04049, Y340D/Y341D); assay: Biochemical Assay for C-Raf (coupled pyruvate kinase/lactate dehydrogenase assay); conditions: 1 mM ATP; read-out: CRAF (inhibition of biochemical activity, IC50)
T2 construct: C-Raf residues 306-end; Y340D, Y341D with; GST (N); purchased Sigma
T2 sequence (P04049 307-648 Y340D/Y341D): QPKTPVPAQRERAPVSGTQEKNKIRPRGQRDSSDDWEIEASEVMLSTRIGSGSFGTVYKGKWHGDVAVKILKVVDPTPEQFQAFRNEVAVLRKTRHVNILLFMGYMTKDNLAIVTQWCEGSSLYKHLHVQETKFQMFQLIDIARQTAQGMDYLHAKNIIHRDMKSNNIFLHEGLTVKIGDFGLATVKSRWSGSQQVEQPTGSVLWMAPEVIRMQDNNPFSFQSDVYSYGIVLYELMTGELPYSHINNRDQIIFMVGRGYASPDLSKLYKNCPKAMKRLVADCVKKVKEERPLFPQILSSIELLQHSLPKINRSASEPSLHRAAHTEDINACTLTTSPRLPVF

HCT-116 cells = assay: HCT-116 Cell Proliferation Assay; type: cell-based; conditions: Table 2, read-out: Inhibition of cell proliferation in HCT-116 (IC50 class)
Description: HCT-116 cells (catalog #CCL-247) are obtained from the American Type Culture Collect (ATCC, Manassas, VA). Briefly, cells are grown in McCoy's 5A supplemented with 10% characterized fetal bovine serum (Invitrogen, Carlsbad, CA) and 1% Penicillin/Streptomycin/L-Glutamine at 37° C., 5% CO2, and 95% humidity. Cells are expanded until reaching 70-95% confluency at which point they are subcultured or harvested for assay use. A serial dilution of test compound is dispensed into a 384-well black clear bottom plate in triplicate. 375 cells are added per well in 50 μL complete growth medium in the 384-well plate. Plates are incubated for 67 to 72 hours at 37° C., 5% CO2, and 95% humidity. At the end of the incubation, 40 μL of a […] solution of resazurin (Sigma, St. Louis, MO) in PBS is added to each well of the plate and plates are incubated for an additional 4 to 5 h at 37° C., 5% CO2, and 95% humidity. Plates are read on a Synergy2 or equivalent reader (Biotek, Winooski, VT) using an excitation of 540 nm and an emission of 600 nm. Data is analyzed using Prism software (Graphpad, San Diego, CA) to calculate IC50 values.

Pa16c cells = assay: Pa16c Cell Proliferation Assay; type: cell-based; conditions: Table 2, read-out: Inhibition of cell proliferation in Pa16c (IC50 class)
Description: Pa16c cells are obtained from Dr. Channing Der, University of North Carolina at Chapel Hill. Briefly, cells are grown in Dulbecco's Modified Eagle Medium supplemented with 10% characterized fetal bovine serum (Invitrogen, Carlsbad, CA) and 1% Penicillin/Streptomycin/L-Glutamine at 37° C., 5% CO2, and 95% humidity. Cells are expanded until reaching 70-95% confluency at which point they are sub-cultured or harvested for assay use. A serial dilution of test compound is dispensed into a 384-well black clear bottom plate in triplicate. 750 cells are added per well in 50 μL complete growth medium in the 384-well plate. Plates are incubated for 67 to 72 h at 37° C., 5% CO2, and 95% humidity. At the end of the incubation, 40 μL of a 440 μM solution of resazurin (Sigma, St. Louis, MO) in PBS is added to each well of the plate and plates are incubated for an additional 18 to 24 hours at 37° C., 5% CO2, and 95% humidity. Plates are read on a Synergy2 or equivalent reader (Biotek, Winooski, VT) using an excitation of 540 nm and an emission of 600 nm. Data is analyzed using Prism software (Graphpad, San Diego, CA) to calculate IC50 values.

HPAF-II cells = assay: HPAF-II Cell Proliferation Assay; type: cell-based; conditions: HPAF-II cells, Table 2, read-out: Inhibition of cell proliferation in HPAF-II (IC50 class)
Description: HPAF-II cells (catalog #CRL-1997) are obtained from the American Type Culture Collect (ATCC, Manassas, VA). Briefly, cells are grown in Minimum Essential Media supplemented with 10% characterized fetal bovine serum (Invitrogen, Carlsbad, CA) and 1% Penicillin/Streptomycin/L-Glutamine at 37° C., 5% CO2, and 95% humidity. Cells are expanded until reaching 70-95% confluency at which point they are sub-cultured or harvested for assay use. A serial dilution of test compound is dispensed into a 384-well black clear bottom plate in triplicate. 750 cells are added per well in 50 μL complete growth medium in the 384-well plate. Plates are incubated for 115 to 120 hours at 37° C., 5% CO2, and 95% humidity. At the end of the incubation, 40 μL of a 440 μM solution of resazurin (Sigma, St. Louis, MO) in PBS is added to each well of the plate and plates are incubated for an additional 18 to 24 hours at 37° C., 5% CO2, and 95% humidity. Plates are read on a Synergy2 or equivalent reader (Biotek, Winooski, VT) using an excitation of 540 nm and an emission of 600 nm. Data is analyzed using Prism software (Graphpad, San Diego, CA) to calculate IC50 values.

[3] = Homo sapiens, MIA PaCa-2, MiaPaca-2 cells
[4] = Homo sapiens, HCT-116, HCT-116 cells

Structure (SMILES) | IC50 [1] | IC50 (MiaPaca-2 cells; [3]) | IC50 [2] | IC50 (HCT-116 cells; [4]) | IC50 (Pa16c cells) | IC50 (HPAF-II cells; Homo sapiens, HPAF-II) | IC50 (MiaPaca-2 cells; MiaPaca-2 cells) | IC50 (HCT-116 cells; HCT-116 cells) | IC50 (HPAF-II cells)
Cc1ccc(NC(=O)c2cc(C3CC3)cnn2)cc1-c1cc(NCCO)nc(-c2ccnc(NC(=O)C3CC3)c2)n1 [Example 103] | < 100 nM | 500 to 1000 nM | < 100 nM | < 100 nM | 1000 to 10000 nM | 500 to 1000 nM | – | – | –
Cc1ccc(NC(=O)c2cc(C(F)(F)F)cnn2)cc1-c1ccnc(-c2ccnc(/N=C/N(C)C)c2)c1 [Example 37, (E)-N-(3-(2′-(((dimethylamino)methylene)amino)-[2,4′-bipyridin]-4-yl)-4-methylphenyl)-5-(trifluoromethyl)pyridazine-3-carboxamide] | < 100 nM | < 100 nM | < 100 nM | 100 to 500 nM | < 100 nM | 1000 to 10000 nM | – | – | –
Cc1cc(-c2cc(NC(=O)c3cncc(C(C)(F)F)c3)ccc2C)cc(-c2ccnc(NC(=O)C3CC3)c2)n1 [Example 16] | < 100 nM | 500 to 1000 nM | < 100 nM | 100 to 500 nM | 1000 to 10000 nM | 1000 to 10000 nM | – | – | –
Cc1ccc(NC(=O)c2cc(C(C)(F)F)cnn2)cc1-c1cc(N[C@H](C)CO)nc(-c2cn[nH]c2)c1 [Example 121] | < 100 nM | < 100 nM | < 100 nM | < 100 nM | < 100 nM | 100 to 500 nM | – | – | –
Cc1ccc(NC(=O)c2cc3c(nn2)CCC3)cc1-c1ccnc(-c2ccnc(NC(=O)C3CC3)c2)c1 [Example 98] | < 100 nM | 1000 to 10000 nM | < 100 nM | 1000 to 10000 nM | 1000 to 10000 nM | 1000 to 10000 nM | – | – | –
Cc1ccc(NC(=O)c2cc(N)cnn2)cc1-c1ccnc(-c2ccnc(NC(=O)C3CC3)c2)c1 [Example 99] | 500 to 1000 nM | 1000 to 10000 nM | 100 to 500 nM | 1000 to 10000 nM | 1000 to 10000 nM | 1000 to 10000 nM | – | – | –
Cc1ccc(NC(=O)c2cc(C3CC3)cnn2)cc1-c1ccnc(-c2cnsc2)c1 [Example 136] | 100 to 500 nM | 100 to 500 nM | < 100 nM | 100 to 500 nM | 100 to 500 nM | 100 to 500 nM | – | – | –
Cc1ccc(NC(=O)c2cc(C(F)(F)F)cnn2)cc1-c1ccnc(-c2ccnc(NC(=O)CC3(C)CC3)c2)c1 [Example 90] | 100 to 500 nM | 100 to 500 nM | 100 to 500 nM | 100 to 500 nM | 1000 to 10000 nM | 100 to 500 nM | – | – | –
Cc1ccc(NC(=O)c2cc(C(F)(F)F)cnn2)cc1-c1ccnc(-c2cncn2C)c1 [Example 135] | < 100 nM | 100 to 500 nM | < 100 nM | 100 to 500 nM | 100 to 500 nM | 100 to 500 nM | – | – | –
Cc1ccc(NC(=O)c2cc(C(F)(F)F)cnn2)cc1-c1ccnc(-c2cscn2)c1 [Example 142] | 500 to 1000 nM | 500 to 1000 nM | 500 to 1000 nM | 100 to 500 nM | 100 to 500 nM | 100 to 500 nM | – | – | –
CC(=O)Nc1cc(-c2cncc(-c3cc(NC(=O)c4cc(C(F)(F)F)cnn4)ccc3C)c2)ncn1 [Example 71] | < 100 nM | – | < 100 nM | – | 1000 to 10000 nM | – | 500 to 1000 nM | 100 to 500 nM | 500 to 1000 nM
O=C(Nc1cc(-c2ccnc(-c3ccnc(NC(=O)C4CC4)c3)c2)c(F)cc1F)c1cc(C(F)(F)F)cnn1 [Example 46] | < 100 nM | 1000 to 10000 nM | < 100 nM | 1000 to 10000 nM | 1000 to 10000 nM | 1000 to 10000 nM | – | – | –
Cc1ccc(NC(=O)c2ccc(C(C)(F)F)nc2)cc1-c1ccnc(-c2ccnc(NC(=O)C3CC3)c2)c1 [Example 80] | < 100 nM | 100 to 500 nM | < 100 nM | 100 to 500 nM | 100 to 500 nM | 100 to 500 nM | – | – | –
Cc1ccc(NC(=O)c2cc(C)c(C)nn2)cc1-c1ccnc(-c2ccnc(NC(=O)C3CC3)c2)c1 [Example 97] | < 100 nM | 1000 to 10000 nM | < 100 nM | 1000 to 10000 nM | 1000 to 10000 nM | 1000 to 10000 nM | – | – | –
COC(=O)Nc1cc(-c2ccnc(-c3cc(NC(=O)c4ccc(C(F)(F)F)nc4)ccc3C)n2)ccn1 [Example 6] | < 100 nM | 1000 to 10000 nM | < 100 nM | 500 to 1000 nM | 1000 to 10000 nM | 1000 to 10000 nM | – | – | –
Cc1ccc(NC(=O)c2cc(C(F)(F)F)cnn2)cc1-c1ccnc(-c2ccnc(N)c2)c1 [Example 2, N-(3-(2′-amino-[2,4′-bipyridin]-4-yl)-4-methylphenyl)-5-(trifluoromethyl)pyridazine-3-carboxamide] | < 100 nM | < 100 nM | < 100 nM | < 100 nM | < 100 nM | < 100 nM | – | – | –
Cc1ccc(NC(=N)c2cc(C(F)(F)F)cnn2)cc1-c1ccnc(-c2ccnc(NC(=O)C3CC3)c2)c1 [Example 86] | 100 to 500 nM | 1000 to 10000 nM | < 100 nM | 1000 to 10000 nM | 1000 to 10000 nM | 1000 to 10000 nM | – | – | –
Cc1ccc(NC(=O)c2cc(C(F)(F)F)cnn2)cc1-c1ccnc(-c2ccoc2)c1 [Example 145] | 100 to 500 nM | 100 to 500 nM | 100 to 500 nM | 100 to 500 nM | 100 to 500 nM | 100 to 500 nM | – | – | –
CC(=O)Nc1cc(-c2cc(-c3cc(NC(=O)c4ccc(C(F)(F)F)nn4)ccc3C)ccn2)ccn1 [Example 13] | 500 to 1000 nM | < 100 nM | 100 to 500 nM | < 100 nM | < 100 nM | < 100 nM | – | – | –
Cc1ccc(NC(=O)c2cc(C3CC3)cnn2)cc1-c1ccnc(-c2ccsc2)c1 [Example 144] | 1000 to 10000 nM | 100 to 500 nM | 1000 to 10000 nM | 100 to 500 nM | 100 to 500 nM | 100 to 500 nM | – | – | –
